We go through three compounds from patent US6835742B2, “Synergistic effect of amlodipine and atorvastatin on cholesterol crystal formation inhibition and aortic endothelial cell nitric oxide release” (priority 2000, dated 2004).

One data set concerns coronary artery disease. Conditions: cited from earlier work.
A short description of data set [1]: Small angle x-ray diffraction of cholesterol-enriched reconstituted membranes (cholesterol domain formation). It counts as physicochemical. Particulars: for d-space of surrounding sterol-poor membrane region: 5° C., 74% relative humidity.
The subject of data set [2] is rabbit aorta endothelial cell. The data set can be described thus: NO release from a single rabbit aorta endothelial cell (porphyrinic sensor). It counts as cell-based. Conditions: after injection of atorvastatin; 37° C. How it is done: NO release measurements. All measurements presented were recorded in vitro. NO release was measured directly from a single endothelial cell in the rabbit aorta. Measurements were done in Hank's balance solution at 37° C. […] The sensor operated with a three-electrode system [sensor working electrode, platinum wire (0.1 mm) counter electrode, and saturated calomel electrode (SCE—reference electrode)]. The three electrodes were connected to a potentiostat/galvanostat PAR273. Data were acquired with the use of an IBM computer with custom software. […] SCE. The release of NO was initiated by the injection of potential agonists of endothelial NO synthase (eNOS) using a temtoinjector placed in the controlled distance from the endothelial cell. Two different agonists were tested: amlodipine and atorvastatin. The different concentrations of these two compounds applied simultaneously were also tested.

The next data set concerns stable and advanced CAD. Conditions: compared to angioplasty with usual medical care; cited from earlier work.
[3] abbreviates: 1.1:1 cholesterol to phospholipid mole ratio, 5° C. (FIG. 5).
Where [4] appears, read: 1.2:1 cholesterol to phospholipid mole ratio, 5° C. (FIG. 4).
Where [5] appears, read: 1.2:1 cholesterol to phospholipid mole ratio.

Turning to `CCOC(=O)C1=C(COCCN)NC(C)=C(C(=O)OC)C1c1ccccc1Cl` (centres unmarked) [AML, Amlodipine besylate], the “progression of carotid atherosclerosis” value in the data set with coronary artery disease (B-mode ultrasonographic assessments) is given as “significant slowing”. Further, in the data set with coronary artery disease (compared to placebo), the “reduction in documented angina” value is recorded as 33% and the “reduction in the need for revascularization” value is 42%. The “effect on cholesterol domain formation” value in data set [1] (setting [3]) is on record as “no effect on domain formation”. Moreover, the “effect on cholesterol domain formation” value in data set [1] (setting [4]) is listed as “did not interfere with domain formation”. Further, the “d-space of surrounding sterol-poor membrane region” value in data set [1] (setting [5]) was determined as 57.8 Å.

On to `CC(C)c1c(C(=O)Nc2ccccc2)c(-c2ccccc2)c(-c2ccc(F)cc2)n1CC[C@@H](O)C[C@@H](O)CC(=O)[O-].CC(C)c1c(C(=O)Nc2ccccc2)c(-c2ccccc2)c(-c2ccc(F)cc2)n1CC[C@@H](O)C[C@@H](O)CC(=O)[O-].[Ca+2]` [AT, atorvastatin calcium], for which the “maximum NO concentration released” value in data set [2] was 20 ± 5 nmol/L. The “reduction of overall incidence of cardiovascular events” value in the data set on stable and advanced CAD is 36%. For the same compound, the “time to a first ischemic event” value with stable and advanced CAD is “significantly delayed”. Moreover, the “effect on cholesterol domain formation” value in data set [1] (setting [3]) was “no effect on domain formation”; in data set [1] (setting [4]), “did not interfere with domain formation”. The “d-space of surrounding sterol-poor membrane region” value in data set [1] (1.1:1 cholesterol to phospholipid mole ratio) amounted to 55.8 Å; in data set [1] (setting [5]), 56.8 Å.

Regarding `COc1ccc(CCN(C)CCCC(C#N)(c2ccc(OC)c(OC)c2)C(C)C)cc1OC` (centres unmarked) [verapamil], the “width of cholesterol monohydrate crystalline domains” value in data set [1] (samples containing verapamil, unaffected by temperature (93% relative humidity) or relative humidity (20° C.)) amounted to 34.0 Å.
